Laboratory results taken from PMC12931196, “Vm–MSI: a Vancomycin–Antimicrobial Peptide Conjugate Combating Resistant Bacteria and Broadening the Antimicrobial Spectrum” (Advanced Science, 2025).
Converted amounts (≈) assume the structure as drawn. “And” between values parts separate entries of the source, which are not always exact repeats. Equal entries are not always repeated.

Columns and labels:
[1] = tested on: 29 bacterial strains (11 Gram‐positive, 18 Gram‐negative); experiment: GM of the MICs across the 29 bacterial strains; format: cell-based; conditions: read-out: GM: Geometric mean of the MICs across the 29 bacterial strains
Method: (§1) The 2 fold broth microdilution method was performed following previously established protocols.^[ [65], [66] ^] A total of 29 strains of human pathogenic microorganisms (11 Gram‐positive and 18 Gram‐negative) were included in the assay. Standard strains were maintained in our laboratory, and clinical isolates were obtained from the Fourth Affiliated Hospital of Soochow University. […] Gradient dilutions of the drugs (vancomycin, AMPs, and vancomycin‐AMP conjugates) were prepared in 96‐well plates, with 50 µL of each drug solution added per well. For the vancomycin and AMP mixture, 25 µL of vancomycin was combined with 25 µL of AMP at the corresponding monomer gradient concentration, resulting in a total volume of 50 µL. […] Following incubation, bacterial growth was assessed by measuring absorbance at 600 nm. The MIC was defined as the lowest concentration at which no bacterial growth was detected.

[2] = tested on: 13 bacterial strains; experiment: GM of MIC from tested bacterial strains (Table S2); format: cell-based; conditions: 13 strains of Table S2; read-out: GM: geometric mean of MIC from tested bacterial strains
Method: as §1

[3] = tested on: S. aureus CMCC26003; experiment: Antimicrobial resistance development assay; format: cell-based; conditions: S. aureus CMCC26003 cultured at sub‐MIC
[4] = tested on: S. aureus CMCC26003; experiment: Antimicrobial blockade experiment using D‐Ala‐D‐Ala; format: cell-based; conditions: D‐Ala‐D‐Ala 0 to 128 µg mL^−1
From the text: In accordance with the experimental methods described in previous literature,^[ [42] ^]

[5] = tested on: VRSA 52, E. coli ATCC25922, and MDR P. aeruginosa 5; experiment: Crystalline violet biofilm inhibition and eradication assays; format: cell-based; conditions: 0.5-8 µM; three strains
Method: The mixture was incubated in a 96‐well plate for 48 h. Subsequent steps, including washing, fixation, staining, and OD measurement, were performed as described in the biofilm eradication assay.

[6] = tested on: VRSA 52 biofilms; conditions: 8 µM, 4 h, SYTO9/PI CLSM
[7] = tested on: E. coli ATCC25922; experiment: Bacterial killing kinetics; conditions: 4 µM, sampled 0-180 min
[8] = tested on: biofilm‐resident bacteria, including VRSA, E. coli, and MDR P. aeruginosa; experiment: Biofilm resident bacteria assay; conditions: 1-8 µM, 24 h
[9] = tested on: S. aureus CMCC26003; experiment: microbe, parasite or virus in culture; conditions: Staphylococcus aureus, CMCC26003, 18 h
[10] = tested on: S. aureus ATCC29213; experiment: microbe, parasite or virus in culture; conditions: Staphylococcus aureus, ATCC29213, 18 h
[11] = tested on: S. aureus 15772; experiment: microbe, parasite or virus in culture; conditions: Staphylococcus aureus, 15772, 18 h
[12] = tested on: S. aureus 15192; experiment: microbe, parasite or virus in culture; conditions: Staphylococcus aureus, 15192, 18 h
[13] = tested on: VRSA 11; experiment: microbe, parasite or virus in culture; conditions: Staphylococcus aureus, 18 h
[14] = tested on: VRSA 52; experiment: microbe, parasite or virus in culture; conditions: Staphylococcus aureus, 18 h
[15] = tested on: E. faecalis ATCC29212; experiment: microbe, parasite or virus in culture; conditions: Enterococcus faecalis, ATCC29212, 18 h
[16] = tested on: E. faecalis 2; experiment: microbe, parasite or virus in culture; conditions: Enterococcus faecalis, 2, 18 h
[17] = tested on: E. coli CMCC44102; experiment: microbe, parasite or virus in culture; conditions: Escherichia coli, CMCC44102, 18 h
[18] = tested on: MDR A. baumannii 1; experiment: microbe, parasite or virus in culture; conditions: Acinetobacter baumannii, 18 h
[19] = tested on: MDR K. pneumoniae 2; experiment: microbe, parasite or virus in culture; conditions: Klebsiella pneumoniae, 18 h
[20] = tested on: MDR K. pneumoniae 3; experiment: microbe, parasite or virus in culture; conditions: Klebsiella pneumoniae, 18 h
[21] = tested on: MDR K. pneumoniae 4; experiment: microbe, parasite or virus in culture; conditions: Klebsiella pneumoniae, 18 h
[22] = tested on: P. aeruginosa ATCC27853; experiment: microbe, parasite or virus in culture; conditions: Pseudomonas aeruginosa, ATCC27853, 18 h
[23] = tested on: S. typhimurium ATCC14028; experiment: microbe, parasite or virus in culture; conditions: Salmonella enterica, 18 h
[24] = tested on: VRSA 52; experiment: Live/dead bacteria staining (PI/SYTO9, CLSM); conditions: 4 µM, 1 h

**Q.** Which results are given for `CN[C@H](CC(C)C)C(=O)N[C@H]1C(=O)N[C@@H](CC(N)=O)C(=O)N[C@H]2C(=O)N[C@H]3C(=O)N[C@H](C(=O)N[C@H](C(=O)O)c4cc(O)cc(O)c4-c4cc3ccc4O)[C@H](O)c3ccc(c(Cl)c3)Oc3cc2cc(c3O[C@@H]2O[C@H](CO)[C@@H](O)[C@H](O)[C@H]2O[C@H]2C[C@](C)(N)[C@H](O)[C@H](C)O2)Oc2ccc(cc2Cl)[C@H]1O` [Vm, vancomycin]?
**A.** MIC [1]: 55.1 µM (≈ 79.8 µg/mL); MIC [2]: 70 µg/mL (≈ 48.3 µM); change of MIC over 20 generations [3]: four‐fold increase; fold increase in the MIC value on exogenous addition of D‐Ala‐D‐Ala [4]: > 25 fold; anti‐biofilm activity (inhibition and eradication) [5]: no noticeable anti‐biofilm activity; killing in the surface layer of the biofilm (dead cells) [6]: 25%; time to elimination of all bacteria [7]: no bactericidal activity; biofilm‐resident bactericidal effect [8]: no significant biofilm‐resident bactericidal effect; MIC [9]: 0.4 µM and 0.59 µg/mL; MIC [10]: 3.16 µM and 4.69 µg/mL; MIC [11]: > 67.3 µM and > 100 µg/mL; MIC [12]: 0.4 µM and 0.59 µg/mL; MIC [13]: > 67.3 µM and > 100 µg/mL; MIC [14]: > 67.3 µM and > 100 µg/mL; MIC [15]: > 67.3 µM and > 100 µg/mL; MIC [16]: > 67.3 µM; MIC [17]: > 67.3 µM; MIC [18]: > 67.3 µM; MIC [19]: > 67.3 µM; MIC [20]: > 67.3 µM; MIC [21]: > 67.3 µM; MIC [22]: > 67.3 µM and > 100 µg/mL; MIC [23]: > 67.3 µM and > 100 µg/mL; bacterial mortality [24]: 2%
